Results published in patent US20240190855A1 (Relay Therapeutics, Inc., priority 2021, published 2024).

Biological target: T1, CDK2/Cyclin E complex (Homo sapiens, UniProt P24941)
T1 construct: purchased Eurofins 14-475
Assay: CDK2/Cyclin E fluorescence-based microfluidic mobility shift assay (CDK2 Biochemical Caliper Assay)
Settings: read-out: Biochemical CDK2/CyclinE Caliper IC50
How it was run: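 Wild-type CDK2/Cyclin E was preincubated with compound and ATP for 30 min at RT before the 5-FAM-QSPKKG peptide was added. Final concentrations were 0.1 nM enzyme, 2000 uM ATP, 1.5 uM peptide and 1% DMSO. After 20 hr at RT and EDTA stop, substrate conversion was read by microfluidic mobility shift over an 11-point, 3-fold dilution series.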

Compared with `Cc1cc(CC(=O)Nc2cc([C@H]3CC[C@@H](Cc4nncn4C(C)C)C3)[nH]n2)on1` (single isomer, unassigned) [Example 370], `Cc1cc(CC(=O)Nc2cc([C@H]3CC[C@@H](Oc4nnccc4C(C)C)C3)[nH]n2)on1` (single isomer, unassigned) [Example 97] is lower in IC50: 1000 to 100000 nM for the first, at most 100 nM for the second.

`Cn1nc(C(F)F)cc1C(=O)Nc1cc([C@H]2C[C@@H](OC(=O)NC3(C)CC3)CO2)[nH]n1` [Example 786] and `Cn1nc(CC(F)(F)F)cc1C(=O)Nc1cc([C@H]2C[C@@H](OC(=O)NC3(C)CC3)CO2)[nH]n1` [Example 785] cannot be ordered by IC50: at most 100 nM for the first, at most 100 nM for the second.

`Cc1cc(CC(=O)Nc2cc([C@H]3CC[C@@H](NC(=O)[C@H](O)C(C)C)C3)[nH]n2)on1` (single isomer, unassigned) [Example 452] and `Cc1cc(CC(=O)Nc2cc([C@@H]3CC[C@H](NC(=O)OC(C)C)C3)[nH]n2)on1` (single isomer, unassigned) [Example 144] fall in the same range of IC50: 1000 to 100000 nM for the first, 1000 to 100000 nM for the second.

`c1cc2ncsc2c(Nc2cc([C@@H]3CC[C@H](Oc4nscc4C4CC4)C3)[nH]n2)n1` (single isomer, unassigned) [Example 405] and `CC(=O)Nc1cc([C@@H]2CC[C@H](Oc3nscc3C3CC3)C2)[nH]n1` (single isomer, unassigned) [Example 422] cannot be ordered by IC50: at most 100 nM for the first, at most 100 nM for the second.

`COCc1cc2c(Nc3cc([C@@H]4C[C@H](Oc5nncn5C5(C)CC5)CO4)[nH]n3)nccn2n1` [Example 719] and `COCc1cc2c(Nc3cc([C@H]4C[C@@H](Oc5nncn5C(C)C)CO4)[nH]n3)nccn2n1` [Example 671] cannot be ordered by IC50: at most 100 nM for the first, 100 to 250 nM for the second.

`CC(C)NC(=O)O[C@H]1CO[C@@H](c2cc(Nc3nccc4ncsc34)n[nH]2)C1` [Example 433] and `CC(C)NC(=O)O[C@H]1CC[C@@H](c2cc(Nc3nccc4ncsc34)n[nH]2)C1` (single isomer, unassigned) [Example 122] cannot be ordered by IC50: at most 100 nM for the first, at most 100 nM for the second.

`COCc1nc2ccnc(Nc3cc([C@@H]4C[C@H](OC(=O)NC(C)C)CO4)[nH]n3)c2s1` (single isomer, unassigned) [Example 466] and `COCc1nc2ccnc(Nc3cc([C@H]4C[C@@H](OC(=O)NC(C)(C)C)CO4)[nH]n3)c2s1` [Example 692] cannot be ordered by IC50: at most 100 nM for the first, at most 100 nM for the second.

`N#CCc1c[nH]c2nccc(Nc3cc(C4CCCC4)[nH]n3)c12` [Example 798] and `O=c1cc(Nc2cc(C3CCCC3)[nH]n2)c2ncccc2[nH]1` [Example 873] fall in the same range of IC50: 1000 to 100000 nM for the first, 1000 to 100000 nM for the second.

`c1cc2c(nc1Nc1cc(C3CCCC3)[nH]n1)CCOC2` [Example 867] and `O=c1ccc2nc(Nc3cc(C4CCCC4)[nH]n3)ccc2[nH]1` [Example 849] fall in the same range of IC50: 1000 to 100000 nM for the first, 1000 to 100000 nM for the second.

First: COCc1cc(C(=O)Nc2cc([C@@H]3CC[C@H](Oc4cccnc4C)C3)[nH]n2)n(C)n1 (single isomer, unassigned) [Example 386]
Second: COCc1cc(C(=O)Nc2cc([C@H]3CC[C@@H](Oc4cncc(C)c4)C3)[nH]n2)n(C)n1 (single isomer, unassigned) [Example 383]
The IC50 of the first is lower: 250 to 1000 nM for the first, 1000 to 100000 nM for the second.

`COCc1cc2c(Nc3cc([C@H]4C[C@@H](OC(=O)N[C@H]5C[C@H]5C)CO4)[nH]n3)nccn2n1` [Example 775] and `COCc1cc2c(Nc3cc([C@@H]4C[C@H](OC(=O)NC(C)C)CO4)[nH]n3)nccn2n1` [Example 545] cannot be ordered by IC50: at most 100 nM for the first, at most 100 nM for the second.

`CC1(NC(=O)O[C@@H]2CO[C@H](c3cc(Nc4nccn5nccc45)n[nH]3)C2)CC1` [Example 782] and `CC1(NC(=O)O[C@H]2CO[C@@H](c3cc(Nc4nccn5nc(C6CC6)cc45)n[nH]3)C2)CC1` [Example 754] cannot be ordered by IC50: at most 100 nM for the first, at most 100 nM for the second.

`Cn1nc(OC(F)(F)Cl)cc1C(=O)Nc1cc([C@H]2C[C@@H](OC(=O)NC3(C)CC3)CO2)[nH]n1` [Example 882] and `Cn1nc(COC(F)(F)F)cc1C(=O)Nc1cc([C@H]2C[C@@H](OC(=O)NC3(C)CC3)CO2)[nH]n1` [Example 704] cannot be ordered by IC50: at most 100 nM for the first, at most 100 nM for the second.

`C[C@H](NC(=O)O[C@H]1CO[C@@H](c2cc(NC(=O)c3cc(COC(F)F)nn3C)n[nH]2)C1)C1CC1` [Example 772] and `C[C@@H](NC(=O)O[C@@H]1CO[C@H](c2cc(NC(=O)c3cc(OCC(F)F)nn3C)n[nH]2)C1)C1CC1` [Example 909] cannot be ordered by IC50: at most 100 nM for the first, at most 100 nM for the second.

Compared with `COCc1cc(C(=O)Nc2cc([C@H]3CC[C@@H](OC(=O)NC(C)C)CC3)[nH]n2)n(C)n1` [Example 626], `COCc1cc(C(=O)Nc2cc([C@H]3CC[C@@H](Oc4nnccc4C(C)C)CC3)[nH]n2)n(C)n1` [Example 627] is lower in IC50: 250 to 1000 nM for the first, at most 100 nM for the second.

`COCc1cc(C(=O)Nc2cc([C@H]3CC[C@@H](Oc4ccccc4)C3)[nH]n2)n(C)n1` (single isomer, unassigned) [Example 364] and `COCc1cc(C(=O)Nc2cc([C@@H]3CC[C@H](c4ccc(C)cn4)C3)[nH]n2)n(C)n1` (single isomer, unassigned) [Example 598] fall in the same range of IC50: 1000 to 100000 nM for the first, 1000 to 100000 nM for the second.

First: Cc1cc(CC(=O)Nc2cc(-c3csc4cnc(NC(C)C)nc34)[nH]n2)on1 [Example 336]
Second: Cc1cc(CC(=O)Nc2cc(-c3ccccc3)[nH]n2)on1 [Example 62]
The IC50 of the first is lower: 250 to 1000 nM for the first, 1000 to 100000 nM for the second. The first is the more potent here.

`Cn1nc(COC(F)(F)F)cc1C(=O)Nc1cc([C@H]2C[C@@H](OC(=O)NC(C)(C)C#N)CO2)[nH]n1` [Example 879] and `Cn1nc(CCOC(F)(F)F)cc1C(=O)Nc1cc([C@H]2C[C@@H](OC(=O)NC3(C)CC3)CO2)[nH]n1` [Example 791] cannot be ordered by IC50: at most 100 nM for the first, at most 100 nM for the second.

`Cc1cc(CC(=O)Nc2cc([C@@H]3CC[C@H](NC(=O)CC(C)C)C3)[nH]n2)on1` (single isomer, unassigned) [Example 130] and `Cc1cc(CC(=O)Nc2cc([C@H]3C[C@H](CC(=O)NC(C)C)C3)[nH]n2)on1` [Example 348] fall in the same range of IC50: 1000 to 100000 nM for the first, 1000 to 100000 nM for the second.

Compared with `Cc1ccc(O[C@H]2CC[C@@H](c3cc(NC(=O)Cc4cc(C)no4)n[nH]3)C2)cn1` (single isomer, unassigned) [Example 356], `Cc1cc(CC(=O)Nc2cc([C@H]3CC[C@@H](Oc4cnccc4C4CC4)C3)[nH]n2)on1` (single isomer, unassigned) [Example 381] is lower in IC50: 250 to 1000 nM for the first, at most 100 nM for the second.

`CCc1c(C)nc2ncnn2c1Nc1cc(C2CCCC2)[nH]n1` [Example 875] and `Cc1c(Nc2cc(C3CCCC3)[nH]n2)nn2cnnc2c1C` [Example 866] fall in the same range of IC50: 1000 to 100000 nM for the first, 1000 to 100000 nM for the second.

`COCc1cc2c(Nc3cc([C@H]4C[C@@H](OC(=O)N[C@@H](C)CC(F)(F)F)CO4)[nH]n3)nccn2n1` [Example 639] and `COCc1cc2c(Nc3cc([C@H]4C[C@@H](OC(=O)NC(C)C)CO4)[nH]n3)nccn2n1` [Example 544] cannot be ordered by IC50: at most 100 nM for the first, at most 100 nM for the second.

`Cc1cnn(-c2ccnc(Nc3cc([C@@H]4CC[C@H](OC(=O)NC(C)C)C4)[nH]n3)c2)c1` (single isomer, unassigned) [Example 403] and `CC(=O)Nc1nc2ccnc(Nc3cc([C@H]4CC[C@@H](OC(=O)NC(C)C)C4)[nH]n3)c2s1` (single isomer, unassigned) [Example 423] cannot be ordered by IC50: 100 to 250 nM for the first, at most 100 nM for the second.

First: COCc1cc(C(=O)Nc2cc([C@@H]3CC[C@H](c4cnc(C)cn4)C3)[nH]n2)n(C)n1 (single isomer, unassigned) [Example 577]
Second: COCc1cc(C(=O)Nc2cc([C@H]3CC[C@@H](c4nccc(C(C)C)n4)C3)[nH]n2)n(C)n1 (single isomer, unassigned) [Example 609]
The IC50 of the first is higher: 1000 to 100000 nM for the first, at most 100 nM for the second. The second is the more potent here.

First: COCc1cc2c(Nc3cc([C@H]4C[C@@H](OC(=O)NCCC5CCOCC5)CO4)[nH]n3)nccn2n1 [Example 694]
Second: COCc1cc2c(Nc3cc([C@H]4C[C@@H](OC(=O)NC56CC(C5)C6)CO4)[nH]n3)nccn2n1 [Example 651]
The IC50 of the first is higher: 1000 to 100000 nM for the first, at most 100 nM for the second. The second is the more potent here.

Compared with `Cc1cc(CC(=O)Nc2cc(C3CC3)[nH]n2)on1` [Example 59], `Cc1cc(CC(=O)Nc2cc([C@@H]3C[C@H](OC(=O)NC4(C)CC4)CO3)[nH]n2)on1` (single isomer, unassigned) [Example 69] is lower in IC50: 1000 to 100000 nM for the first, at most 100 nM for the second.

`Cc1cc(CC(=O)Nc2cc(N3CC[C@@H](COC(=O)NC4(C)CC4)C3)[nH]n2)on1` (racemic) [Example 53] and `CCOCc1cc(C(=O)Nc2cc([C@H]3C[C@H](COC(=O)NC(C)C)C3)[nH]n2)n(C)n1` [Example 625] fall in the same range of IC50: 1000 to 100000 nM for the first, 1000 to 100000 nM for the second.

`CC(C)c1[nH]ncc1OC[C@H]1C[C@@H](c2cc(Nc3nccn4nccc34)n[nH]2)C1` [Example 582] and `c1cncc(OC[C@H]2C[C@@H](c3cc(Nc4nccn5nccc45)n[nH]3)C2)c1` [Example 536] cannot be ordered by IC50: at most 100 nM for the first, at most 100 nM for the second.

`CC(C)NC(=O)O[C@@H]1CO[C@H](c2cc(NC(=O)c3cc(CN4CCCC4)nn3C)n[nH]2)C1` [Example 634] and `C[C@H](NC(=O)O[C@@H]1CO[C@H](c2cc(NC(=O)c3cc(OCC(F)F)nn3C)n[nH]2)C1)C1CC1` [Example 919] cannot be ordered by IC50: 100 to 250 nM for the first, at most 100 nM for the second.

First: Cc1ncccc1O[C@H]1CO[C@@H](c2cc(Nc3nccn4nccc34)n[nH]2)C1 [Example 522]
Second: CC(C)n1cnnc1O[C@H]1CO[C@@H](c2cc(Nc3nccn4nccc34)n[nH]2)C1 [Example 784]
The IC50 of the first is higher: 250 to 1000 nM for the first, at most 100 nM for the second.

`C[C@H]1CC[C@H](C)N1C(=O)O[C@H]1CO[C@@H](c2cc(Nc3ccc4c(c3)C(C)(C)NC4=O)n[nH]2)C1` (single isomer, unassigned) [Example 591] and `COCc1nc2ccnc(Nc3cc([C@H]4C[C@@H](OC(=O)NC(C)(C)COC)CO4)[nH]n3)c2s1` [Example 701] cannot be ordered by IC50: at most 100 nM for the first, at most 100 nM for the second.

First: COCc1cc2c(Nc3cc([C@H]4C[C@@H](OC(=O)N[C@H](C)C(F)F)CO4)[nH]n3)nccn2n1 [Example 752]
Second: COCc1cc2c(Nc3cc([C@H]4C[C@@H](COc5cccnc5)C4)[nH]n3)nccn2n1 [Example 586]
The IC50 of the first is lower: at most 100 nM for the first, 250 to 1000 nM for the second.

`COCc1cc(C(=O)Nc2cc([C@H]3C[C@](C)(CC(=O)NC(C)C)C3)[nH]n2)n(C)n1` [Example 533] and `COc1cnc2c(Nc3cc(C4CCCC4)[nH]n3)nccc2c1` [Example 804] fall in the same range of IC50: 1000 to 100000 nM for the first, 1000 to 100000 nM for the second.

`c1cc2c(Nc3cc(C4CCCC4)[nH]n3)ncnn2c1` [Example 861] showed an IC50 of 1000 to 100000 nM.
